{"source": "patent US20180246095A1", "about": "“COMPOSITIONS AND METHODS FOR DIAGNOSING AND TREATING LYME DISEASE” (priority 2015, published 2018)", "test_system": "B. burgdorferi B31", "assay": "RNA-Seq gene expression profile of B. burgdorferi persisters that survived antibiotic treatment, compared with drug free control", "format": "cell-based, Borrelia burgdorferi", "conditions": "vs drug free control", "procedure": "RNA Sequencing (RNA-Seq) was performed to determine the gene expression profile of B. burgdorferi persisters that survived antibiotic treatment using next generation sequencing to shed light on the mechanisms of B. burgdorferi persistence. B. burgdorferi B31 cultures were grown for 5 days to 1×10^7 spirochetes/ml in BSK-H medium followed by treatment with 50 μg/ml doxycycline or 50 μg/ml amoxicillin for 6 days. Triplicate biological samples were used for each group. The total RNA was extracted and ribosomal RNA was removed prior to preparation of cDNA libraries for Illumina sequencing. […] The RNA-Seq data was analyzed by BLAST analysis and mapped to KEGG pathways.", "key": {"[1]": {"conditions": "50 μg/ml antibiotic for 6 days, more than two-fold change"}}, "data": [{"smiles": "C[C@H]1c2cccc(O)c2C(=O)C2=C(O)[C@]3(O)C(=O)C(C(N)=O)=C(O)[C@@H](N(C)C)[C@@H]3[C@@H](O)[C@@H]21", "note": "[doxycycline, reference compound]", "values": [{"measurement": "genes down-regulated in treated group", "setting": "50 μg/ml antibiotic for 6 days", "value": 340, "unit": "genes"}, {"measurement": "genes upregulated in treated group", "setting": "50 μg/ml antibiotic for 6 days", "value": 335, "unit": "genes"}, {"measurement": "total genes differentially expressed between tolerant persisters and drug free group", "setting": "50 μg/ml antibiotic for 6 days", "value": 675, "unit": "genes"}, {"measurement": "down-regulated genes identified by more than two-fold change", "setting": "[1]", "value": 33, "unit": "genes"}, {"measurement": "up-regulated genes identified by more than two-fold change", "setting": "[1]", "value": 35, "unit": "genes"}, {"measurement": "clpP (BB_0757) expression, upregulated fold change in persisters", "setting": "B31 culture treated with 50 μg/ml antibiotic for 6 days", "value": 30, "unit": "fold"}]}]}
